These are literature values, as cited in publication PMC5454779 (Biochemistry, 2011).

This series addresses ssDNA. The note with it: read-out: Kd of cold shock protein A with ssDNA; single OB-fold; ref [9].

On to “cold shock protein A: cold shock protein consisting of a single OB-fold”, for which the Kd was 6 µM.
